“And” between values parts separate entries of the source, which are not always exact repeats. Equal values may be shown once.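 1) Cells in 96-well plates. 2) Compound, 48 h, 5 concentrations. 3) Linear interpolation between surrounding doses. 4) Unreached endpoint = highest concentration. Here, GI50 denotes the concentration required for 50% inhibition of growth. TGI: concentration producing complete growth inhibition.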

Drawing on PubChem BioAssay (NCI), this text covers GI50 and TGI for 17 compounds.

The first experiment relates to CCRF-CEM leukemia. Briefly: growth of human tumour cells (NCI), 48 h.
`COc1ccc(-c2oc(=O)ccc2-c2cc(OC)c(OC)c(OC)c2)cc1F`: the GI50 is 26.6 µM and the TGI was > 100 µM.

For the compound `O=C(c1ccc(F)c(F)c1Nc1ccc(I)cc1F)N1CC(O)([C@@H]2CCCCN2)C1`, the GI50 was 10.2 µM and > 10 µM; the TGI is 26.7 µM and > 10 µM.

In turn, `Oc1cc(O)c2c(c1)OC(c1ccc(O)c(O)c1)C(OC1(c3cc(O)c(O)c(O)c3)Oc3cc(O)cc(O)c3C(O)C1O)C2` (stereo not given) had a TGI of 43.7 µM.

For `CCOc1ccc2nc(S/C(=C/C=C(C#N)C#N)c3ccc(C)cc3)sc2c1`, the GI50 was 2.05 µM and the TGI was 5.52 µM.

Consider `COc1cc(CNCCCN2C(=O)c3ccc4c5c(ccc(c35)C2=O)C(=O)N(CCCNCc2cc(OC)c(OC)c(OC)c2)C4=O)cc(OC)c1OC`, for which the GI50 is 0.3 µM and the TGI was 4.07 µM.

With `Cc1nc2cnc(N)c(C#Cc3cncc(C(=O)Nc4ccc(CN5CCN(C)CC5)c(C(F)(F)F)c4)c3)c2nc1C`, the GI50 is 2.12 µM and the TGI was found to be 16.7 µM.

Take `O=C1NC(=S)NNC12c1ccccc1-c1ccccc12`: the TGI is > 10 µM.

In the case of `Cc1csc(Nc2nc(-c3cccc(Br)c3)nc(C(Cl)(Cl)Cl)n2)n1`, the GI50 was > 100 µM and the TGI was > 100 µM.

As to `COc1c(OC)c(OC)c(C(=O)/C=C/c2ccccc2)c(OC)c1OC`, the TGI is 18.1 µM.

In the case of `CS(=O)(=O)CCCn1c(=O)c(Oc2ccc(F)cc2F)cc2cnc(NC3CCOCC3)nc21`, the GI50 was > 25 µM and the TGI was > 25 µM.

For `O=C(CC(O)(C(F)(F)F)C(F)(F)F)c1cc(CC(=O)C(O)(C(F)(F)F)C(F)(F)F)cc(CC(=O)C(O)(C(F)(F)F)C(F)(F)F)c1`, the TGI is > 10 µM.

For `Cc1cn2c(/C=C3\C(=O)Nc4ccc(O)cc43)c(-c3ccc(Cl)cc3)nc2s1`, the GI50 was 29.4 µM and the TGI is > 100 µM.

For the compound `O=C(c1c(F)ccc(NS(=O)(=O)N2CC[C@@H](F)C2)c1F)c1c[nH]c2ncc(-c3cnc(C4CC4)nc3)cc12`, the GI50 is 6.52 µM and 7.64 µM; the TGI was > 100 µM.

For `O=C(c1ccc(Cl)cc1)c1cnc(Nc2ccccc2Cl)s1`, the TGI is > 100 µM.

For `Nc1nc(N)c(N=Nc2ccc([As](=O)(O)O)cc2)c(=O)[nH]1`, the TGI is > 100 µM.

As to `C=CC(=O)N1CCC(C2CCNc3c(C(N)=O)c(-c4ccc(Oc5ccccc5)cc4)nn32)CC1` (stereo not given), the GI50 was 24.8 µM and the TGI was > 100 µM.

As for `CCCCCCNC(=O)c1nc(-c2ccccc2)oc1Cc1ccc(OP(=O)(O)O)cc1`, the GI50 was 24 µM and the TGI was determined as 67 µM.

Another experiment relates to M14 melanoma. Kind of experiment: growth of human tumour cells (NCI), 48 h.
Consider `COc1ccc(-c2oc(=O)ccc2-c2cc(OC)c(OC)c(OC)c2)cc1F`, for which the GI50 is 14.1 µM and the TGI was > 100 µM.

In the case of `O=C(c1ccc(F)c(F)c1Nc1ccc(I)cc1F)N1CC(O)([C@@H]2CCCCN2)C1`, the GI50 is < 0.01 µM and 0.00283 µM; the TGI was 0.205 µM and 0.0436 µM.

As for `Oc1cc(O)c2c(c1)OC(c1ccc(O)c(O)c1)C(OC1(c3cc(O)c(O)c(O)c3)Oc3cc(O)cc(O)c3C(O)C1O)C2` (stereo not given), the TGI was > 65.6 µM.

Consider `CCOc1ccc2nc(S/C(=C/C=C(C#N)C#N)c3ccc(C)cc3)sc2c1`, for which the GI50 is 35.8 µM and the TGI was > 100 µM.

`COc1cc(CNCCCN2C(=O)c3ccc4c5c(ccc(c35)C2=O)C(=O)N(CCCNCc2cc(OC)c(OC)c(OC)c2)C4=O)cc(OC)c1OC`: the GI50 is 0.841 µM and the TGI amounted to 1.6 µM.

`Cc1nc2cnc(N)c(C#Cc3cncc(C(=O)Nc4ccc(CN5CCN(C)CC5)c(C(F)(F)F)c4)c3)c2nc1C`: the GI50 is 0.0903 µM and the TGI came out at 0.339 µM.

With `O=C1NC(=S)NNC12c1ccccc1-c1ccccc12`, the TGI was > 10 µM.

Take `Cc1csc(Nc2nc(-c3cccc(Br)c3)nc(C(Cl)(Cl)Cl)n2)n1`: the GI50 is > 100 µM and the TGI is > 100 µM.

`COc1c(OC)c(OC)c(C(=O)/C=C/c2ccccc2)c(OC)c1OC`: the TGI worked out at 36.7 µM.

As to `CS(=O)(=O)CCCn1c(=O)c(Oc2ccc(F)cc2F)cc2cnc(NC3CCOCC3)nc21`, the GI50 was > 25 µM and the TGI was > 25 µM.

Take `O=C(CC(O)(C(F)(F)F)C(F)(F)F)c1cc(CC(=O)C(O)(C(F)(F)F)C(F)(F)F)cc(CC(=O)C(O)(C(F)(F)F)C(F)(F)F)c1`: the TGI is > 9.09 µM.

With `Cc1cn2c(/C=C3\C(=O)Nc4ccc(O)cc43)c(-c3ccc(Cl)cc3)nc2s1`, the GI50 was 17 µM and the TGI was > 100 µM.

On to `O=C(c1c(F)ccc(NS(=O)(=O)N2CC[C@@H](F)C2)c1F)c1c[nH]c2ncc(-c3cnc(C4CC4)nc3)cc12`, for which the GI50 was 0.00625 µM and < 0.01 µM; the TGI was > 4.09 µM and 10.4 µM.

On to `O=C(c1ccc(Cl)cc1)c1cnc(Nc2ccccc2Cl)s1`, for which the TGI was > 31.6 µM.

Take `Nc1nc(N)c(N=Nc2ccc([As](=O)(O)O)cc2)c(=O)[nH]1`: the TGI is > 100 µM.

Regarding `C=CC(=O)N1CCC(C2CCNc3c(C(N)=O)c(-c4ccc(Oc5ccccc5)cc4)nn32)CC1` (stereo not given), the GI50 was 15.4 µM and the TGI was 33.1 µM.

With `CCCCCCNC(=O)c1nc(-c2ccccc2)oc1Cc1ccc(OP(=O)(O)O)cc1`, the GI50 is 18 µM and the TGI was 35.5 µM.

A further experiment concerns UACC-257 melanoma. Kind of experiment: growth of human tumour cells (NCI), 48 h.
For `COc1ccc(-c2oc(=O)ccc2-c2cc(OC)c(OC)c(OC)c2)cc1F`, the GI50 is 31500 nM and the TGI is > 100000 nM.

As to `O=C(c1ccc(F)c(F)c1Nc1ccc(I)cc1F)N1CC(O)([C@@H]2CCCCN2)C1`, the GI50 was < 10 nM and 4.13 nM; the TGI is 36.8 nM and 36.3 nM.

In the case of `Oc1cc(O)c2c(c1)OC(c1ccc(O)c(O)c1)C(OC1(c3cc(O)c(O)c(O)c3)Oc3cc(O)cc(O)c3C(O)C1O)C2` (stereo not given), the TGI was > 100000 nM.

For `CCOc1ccc2nc(S/C(=C/C=C(C#N)C#N)c3ccc(C)cc3)sc2c1`, the GI50 was > 100000 nM and the TGI was > 100000 nM.

As to `COc1cc(CNCCCN2C(=O)c3ccc4c5c(ccc(c35)C2=O)C(=O)N(CCCNCc2cc(OC)c(OC)c(OC)c2)C4=O)cc(OC)c1OC`, the GI50 was 283 nM and the TGI worked out at 541 nM.

Regarding `Cc1nc2cnc(N)c(C#Cc3cncc(C(=O)Nc4ccc(CN5CCN(C)CC5)c(C(F)(F)F)c4)c3)c2nc1C`, the GI50 is 189 nM and the TGI came out at 1740 nM.

For the compound `O=C1NC(=S)NNC12c1ccccc1-c1ccccc12`, the TGI is > 10000 nM.

For the compound `Cc1csc(Nc2nc(-c3cccc(Br)c3)nc(C(Cl)(Cl)Cl)n2)n1`, the GI50 is 3340 nM and the TGI is > 100000 nM.
